Reference: the supplement of paper PMC11451515

Tested on: NOMO1
Experiment: cell viability relative to DMSO control; higher = less cytotoxic
Settings: 48 h
Outline: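 Library compounds in DMSO were pin-dosed in an 11-point threefold series (47 μM to 0.79 nM) onto leukemia cells in 1536-well plates (5 μl). Plates held 500 cells/well of NOMO1 or SEM or 1000 cells/well of P12-Ichikawa, each adapted for at least four passages in each medium. Luminescence was read with CellTiter-Glo One after 48 h at 37°C. Viability means the per-plate percentage relative to DMSO wells, using cell-free wells as background.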

[1] = HPLM + 10% dialyzed FBS, 0.000781 µM
[2] = HPLM + 10% dialyzed FBS, 0.00234 µM
[3] = HPLM + 10% dialyzed FBS, 0.00702 µM
[4] = HPLM + 10% dialyzed FBS, 0.0211 µM
[5] = HPLM + 10% dialyzed FBS, 0.0632 µM
[6] = HPLM + 10% dialyzed FBS, 0.19 µM
[7] = HPLM + 10% dialyzed FBS, 0.569 µM
[8] = HPLM + 10% dialyzed FBS, 1.71 µM
[9] = HPLM + 10% dialyzed FBS, 5.12 µM
[10] = HPLM + 10% dialyzed FBS, 15.4 µM
[11] = HPLM + 10% dialyzed FBS, 46.1 µM
[12] = RPMI 5 mM glucose + 10% FBS, 0.000781 µM
[13] = RPMI 5 mM glucose + 10% FBS, 0.00234 µM
[14] = RPMI 5 mM glucose + 10% FBS, 0.00702 µM
[15] = RPMI 5 mM glucose + 10% FBS, 0.0211 µM
[16] = RPMI 5 mM glucose + 10% FBS, 0.0632 µM
[17] = RPMI 5 mM glucose + 10% FBS, 0.19 µM
[18] = RPMI 5 mM glucose + 10% FBS, 0.569 µM
[19] = RPMI 5 mM glucose + 10% FBS, 1.71 µM
[20] = RPMI 5 mM glucose + 10% FBS, 5.12 µM
[21] = RPMI 5 mM glucose + 10% FBS, 15.4 µM
[22] = RPMI 5 mM glucose + 10% FBS, 46.1 µM
[23] = RPMI 5 mM glucose + 10% dialyzed FBS, 0.000781 µM
[24] = RPMI 5 mM glucose + 10% dialyzed FBS, 0.00234 µM
[25] = RPMI 5 mM glucose + 10% dialyzed FBS, 0.00702 µM
[26] = RPMI 5 mM glucose + 10% dialyzed FBS, 0.0211 µM
[27] = RPMI 5 mM glucose + 10% dialyzed FBS, 0.0632 µM
[28] = RPMI 5 mM glucose + 10% dialyzed FBS, 0.19 µM
[29] = RPMI 5 mM glucose + 10% dialyzed FBS, 0.569 µM
[30] = RPMI 5 mM glucose + 10% dialyzed FBS, 1.71 µM
[31] = RPMI 5 mM glucose + 10% dialyzed FBS, 5.12 µM
[32] = RPMI 5 mM glucose + 10% dialyzed FBS, 15.4 µM
[33] = RPMI 5 mM glucose + 10% dialyzed FBS, 46.1 µM

Row | SMILES | cell viability [1] | cell viability [2] | cell viability [3] | cell viability [4] | cell viability [5] | cell viability [6] | cell viability [7] | cell viability [8] | cell viability [9] | cell viability [10] | cell viability [11] | cell viability [12] | cell viability [13] | cell viability [14] | cell viability [15] | cell viability [16] | cell viability [17] | cell viability [18] | cell viability [19] | cell viability [20] | cell viability [21] | cell viability [22] | cell viability [23] | cell viability [24] | cell viability [25] | cell viability [26] | cell viability [27] | cell viability [28] | cell viability [29] | cell viability [30] | cell viability [31] | cell viability [32] | cell viability [33]
1 | CC1=C2N=C([NH]C2=CC(=C1)N3CCOCC3)\C4=C(NC[C@@H](O)C5=CC=CC(=C5)Cl)\C=C/NC4=O | 86.2% | 100% | 105% | 99.8% | 98.4% | 92.8% | 79.3% | 65.4% | 61.2% | 44.2% | 44.7% | 104% | 103% | 109% | 99.1% | 95.7% | 108% | 89.8% | 73.7% | 68.9% | 65.3% | 57.4% | 99.6% | 101% | 90.4% | 91.9% | 96% | 87.6% | 72.8% | 67.1% | 53.6% | 57.2% | 49.1%
2 | Cn1c(=O)c2c(ncn2CC(O)CO)n(C)c1=O (stereo not given) | 106% | 109% | 114% | 119% | 121% | 136% | 103% | 120% | 130% | 103% | 111% | 119% | 98% | 100% | 109% | 104% | 108% | 103% | 103% | 103% | 95.3% | 58.2% | 116% | 116% | 115% | 128% | 118% | 115% | 128% | 120% | 111% | 99.4% | 62.7%
3 | COc1cc(N2CCC(N3CCN(C)CC3)CC2)ccc1Nc1ncnc(Nc2ccccc2[S+](=O)([O-])C(C)C)n1 | 92.5% | 92.9% | 95.9% | 111% | 65% | 123% | 144% | 117% | 102% | 54.4% | 31% | 110% | 103% | 113% | 119% | 88% | 117% | 115% | 108% | 110% | 62.5% | 43.2% | 87.6% | 87.7% | 91.9% | 89.3% | 69.1% | 107% | 123% | 114% | 109% | 58.3% | 34.5%
4 | CC(C)(O)CNc1nc(Nc2ccnc(C(F)(F)F)c2)nc(-c2cccc(C(F)(F)F)n2)n1 | 99.2% | 99.4% | 131% | 120% | 146% | 122% | 134% | 114% | 99.4% | 85.8% | 72.8% | 112% | 115% | 102% | 109% | 118% | 106% | 103% | 123% | 43.7% | 50.3% | 48.7% | 105% | 110% | 120% | 115% | 121% | 117% | 109% | 114% | 56.3% | 53.2% | 62.5%
5 | COc1ccc(Cn2ccc3ccc(C(=O)NO)cc32)cc1 |  |  |  |  |  |  |  |  |  |  |  | 107% | 121% | 115% | 128% | 124% | 123% | 130% | 137% | 124% | 130% | 128% |  |  |  |  |  |  |  |  |  |  | 
6 | CCc1cc(/C(C)=N/OCc2ccc(C3CCCCC3)c(C(F)(F)F)c2)ccc1CN1CC(C(=O)O)C1 | 111% | 133% | 106% | 108% | 129% | 109% | 108% | 79.1% | 66.4% | 31.8% | 40.1% | 110% | 113% | 104% | 115% | 135% | 115% | 120% | 107% | 107% | 26.8% | 20.9% | 99% | 116% | 117% | 112% | 119% | 114% | 115% | 103% | 103% | 26.6% | 29%
7 | c1cc(-c2sc(-c3ccncc3)c(-c3ccncc3)c2-c2ccncc2)ccn1 | 88.1% | 111% | 117% | 111% | 108% | 129% | 140% | 114% | 124% | 116% | 78.3% | 118% | 128% | 106% | 105% | 113% | 118% | 127% | 103% | 98.2% | 109% | 93.4% | 94.1% | 107% | 106% | 104% | 117% | 106% | 114% | 105% | 101% | 90.9% | 92.3%
8 | COc1ccc(-c2c(-c3ccc(O)cc3O)n[nH]c2C)cc1 | 108% | 115% | 105% | 115% | 126% | 117% | 104% | 123% | 83% | 102% | 59% | 89% | 98.4% | 105% | 101% | 100% | 113% | 105% | 111% | 106% | 102% | 90.3% | 91% | 98% | 102% | 124% | 113% | 110% | 121% | 99.1% | 109% | 99.1% | 77.1%
9 | CNC(=O)c1cc(Oc2ccc(NC(=O)Nc3cc(C(C)(C)C)nn3-c3ccc4ncccc4c3)c(F)c2)ccn1 | 123% | 121% | 121% | 128% | 127% | 170% | 135% | 155% | 157% | 156% | 122% |  |  |  |  |  |  |  |  |  |  |  | 119% | 124% | 125% | 140% | 151% | 154% | 160% | 158% | 155% | 164% | 123%
10 | CN(C)c1nc(N(C)C)nc(N(C)C)n1 | 101% | 113% | 100% | 105% | 96.3% | 92% | 90.5% | 97.1% | 98.7% | 82.3% | 89.9% | 96.2% | 108% | 102% | 97.4% | 99% | 95.3% | 94.6% | 92.2% | 95.9% | 95.3% | 91% | 94% | 103% | 96% | 99% | 98.4% | 103% | 101% | 89.4% | 83.9% | 90.8% | 85.6%
11 | C[C@@]12OC(=O)[C@@]1(NC(=O)[C@@H]2CCCl)[C@@H](O)[C@H]\3CCC\C=C3 | 109% | 114% | 104% | 104% | 97.9% | 51.4% | 9.1% | 6.95% | 4.84% | 2.62% | 1.53% | 86.2% | 94.4% | 104% | 103% | 100% | 66.2% | 11% | 6.39% | 7.27% | 3.01% | 1.15% | 90.2% | 110% | 106% | 96.8% | 102% | 62.7% | 11% | 5.88% | 4.34% | 2.85% | 1.4%
12 | C[C@@H]1CN(CC(=O)N2CC(C)(C)c3ncc(Cc4ccc(F)cc4)cc32)[C@@H](CN2CCOC[C@H]2C)CN1 | 100% | 117% | 145% | 112% | 129% | 114% | 112% | 103% | 109% | 84% | 46.4% | 96.9% | 120% | 121% | 111% | 117% | 121% | 102% | 109% | 103% | 95.3% | 91.4% | 95.4% | 119% | 117% | 119% | 111% | 114% | 111% | 106% | 105% | 98.2% | 69.3%
13 | Nc1ccc([S+](=O)([O-])Nc2ccccn2)cc1 | 122% | 106% | 122% | 117% | 106% | 115% | 140% | 133% | 116% | 124% | 87.6% | 110% | 106% | 111% | 113% | 121% | 125% | 112% | 118% | 126% | 108% | 79.8% | 120% | 121% | 114% | 109% | 112% | 121% | 122% | 130% | 109% | 115% | 58.1%
14 | CCC(CC)[C@H](NC(C)=O)[C@@H]1[C@H](O)[C@@H](C(=O)O)C[C@H]1NC(=N)N | 67.7% | 72% | 78% | 85% | 80.9% | 96.4% | 90.3% | 90.8% | 87.7% | 82.8% | 94.9% | 81.8% | 85% | 88.7% | 85.8% | 89% | 84.3% | 90% | 87.1% | 84.1% | 79.5% | 81.1% | 80.4% | 79.7% | 82.6% | 80.4% | 93% | 83% | 90.2% | 81.7% | 78.2% | 78.3% | 83.1%
15 | CC1(C)OC/2=C(\[C@H](NCC3=CC=CC=C3)[C@@H]1O)C(=O)C4=CC=CC=C4C2=O | 112% | 36.5% | 117% | 101% | 104% | 96.1% | 108% | 82.5% | 37.6% | 22.4% | 7.72% | 89.7% | 99.6% | 89.2% | 95.5% | 86.7% | 93.8% | 95% | 98.2% | 37.4% | 17.5% | 5.95% | 86.7% | 90.2% | 88.1% | 89.3% | 98.3% | 92.6% | 97.6% | 86.9% | 60.2% | 26.7% | 5.24%
16 | CCCCOc1ccc(C(=O)Nc2ccc(F)cc2F)cc1 | 85.8% | 90.8% | 91.4% | 96.3% | 89.2% | 85.6% | 103% | 104% | 92.2% | 97.8% | 51% | 81.7% | 87.5% | 81.5% | 89.5% | 86.3% | 94.7% | 88.1% | 93.8% | 92.9% | 88.3% | 83% | 79.5% | 89.2% | 76.8% | 97.5% | 89.6% | 95.4% | 91.9% | 96.5% | 97.8% | 88.5% | 92%
